For assay [1], the system named is Adult male Sprague-Dawley rats. Description: Example 3: prostate, epididymis and body weight gain in male rats treated with racemic, R- or S-equol. Particulars: for Body Wt Gain (g) / Epididymis (g) / Prostate (g): 0.25 mg/kg/day sc, seven days. It is filed as in vivo, rat. The protocol: Adult male Sprague-Dawley rats are randomly assigned to […] groups and receive daily injections of either DMSO, a racemic mixture of equol at 0.250 mg/kg/day), R-equol at 0.250 mg/kg/day, or S-equol at 0.250 mg/kg/day. The total volume of each injection is 0.3 cc, administered sc at the nape of the rat's neck. After seven consecutive days of treatment, the rats are killed and the body weight gain during the injection period is determined.

The test system of assay [2] is Adult male Sprague-Dawley rats. Description: Example 15: elevated plus maze of equol injected male rats. Format: in vivo, rat. The conditions noted are these: 0.250 mg/Kg/day sc, seven days, n = 8. The source says: The elevated plus maze is a behavioral test used to quantify anxiety-related behavior and identify anxiolytic drugs (Pellow S. et al., J Neurosci Methods, 14:149-147 (1985); Current Protocols In Neuroscience (1997) 8.3.1-8.3.15, John Wiley & Sons. NY, N.Y.). The test relies on the inherent conflict between exploration of a novel environment and avoidance of its aversive features. Normally, animals spend little time and make few entries into the open arms of the maze compared to the closed arms of the maze (Imhof J. T. et al., Behav Brain Res, 56:177-180 (1993). However, animals treated with anxiolytics, such as benzodiazepines (valium), spend more time in the open arms and the number of entries into the open arms reflects a decrease in anxiety-related behaviors (Pellow S. et al., J Neurosci Methods, 14:149-147 (1985); Current Protocols In Neuroscience (1997) 8.3.1-8.3.15, John Wiley & Sons. NY, N.Y.; Chopin P. et al., Psychopharm, 110:409-414 (1993).
Adult male Sprague-Dawley rats receive daily injections of either DMSO, racemic equol (0.250 mg/Kg/day), R-equol (0.250 mg/Kg/day), or S-equol (0.250 mg/Kg/day) in a total volume of 0.3 cc DMSO by subcutaneous injection. At the end of seven consecutive days of treatment the animals are tested in the elevated plus maze in order to quantify anxiety-related behaviors.

Assay [3] deals with T1, AR (Rattus norvegicus, UniProt P15207).
T1 construct: incubated with prostate supernatant and then passed through the 30 cm column; from tissue; host or cells: prostate supernatant
T1 sequence (P15207 1-902): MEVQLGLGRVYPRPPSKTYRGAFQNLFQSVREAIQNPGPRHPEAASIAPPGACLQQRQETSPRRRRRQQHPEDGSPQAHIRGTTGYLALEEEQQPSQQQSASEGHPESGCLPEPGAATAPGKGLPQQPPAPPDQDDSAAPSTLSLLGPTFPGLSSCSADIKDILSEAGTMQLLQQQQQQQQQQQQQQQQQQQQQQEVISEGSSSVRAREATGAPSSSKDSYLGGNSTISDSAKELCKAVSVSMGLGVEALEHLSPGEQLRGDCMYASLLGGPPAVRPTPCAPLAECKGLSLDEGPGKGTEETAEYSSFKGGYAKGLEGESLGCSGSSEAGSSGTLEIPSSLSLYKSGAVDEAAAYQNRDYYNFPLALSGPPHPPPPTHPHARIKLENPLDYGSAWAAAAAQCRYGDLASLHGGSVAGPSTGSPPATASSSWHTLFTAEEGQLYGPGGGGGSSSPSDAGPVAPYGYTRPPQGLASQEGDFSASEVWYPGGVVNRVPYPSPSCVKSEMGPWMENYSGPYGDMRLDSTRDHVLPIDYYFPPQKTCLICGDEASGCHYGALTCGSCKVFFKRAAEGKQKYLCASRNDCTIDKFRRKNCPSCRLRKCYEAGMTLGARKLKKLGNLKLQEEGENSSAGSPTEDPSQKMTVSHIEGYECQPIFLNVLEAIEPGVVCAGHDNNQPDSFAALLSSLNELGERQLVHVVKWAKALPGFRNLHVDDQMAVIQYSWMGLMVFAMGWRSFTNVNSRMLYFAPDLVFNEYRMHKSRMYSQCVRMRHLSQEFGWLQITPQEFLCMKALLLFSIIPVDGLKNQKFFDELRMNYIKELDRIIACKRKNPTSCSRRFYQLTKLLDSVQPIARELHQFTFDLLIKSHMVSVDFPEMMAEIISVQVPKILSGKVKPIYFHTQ
The experiment in a line: Binding to the androgen receptor (prostate supernatant, [3H]DHT).

Molecules are shown by their SMILES. Where two headings read alike, the source gives them in different places.

Consider `Oc1ccc(C2COc3cc(O)ccc3C2)cc1` (racemic) [equol, 7-hydroxy-3(4′hydroxyphenyl)-chroman], for which, in assay [1], the “Body Wt Gain (g)” value is listed as 56.1 (±3.7) g, the “Epididymis (g)” value was 0.89 (±.03) g and the “Prostate (g)” value is 0.38 (±0.02) g. For the same compound, in assay [1] (equol experiments), the “decrease in body weight” value is given as “around 10%”. In addition, the “reduction in white adipose tissue deposition” value in assay [1] (racemic equol injections) is recorded as “around 36%”. In addition, in assay [2], the “Center Area” value worked out at 37.1 ± 6.3 s and the “Open Arm Time” value came to 40.9 ± 7.0 s. Further, the “binding to the androgen receptor” value in assay [3] is given as “does not compete with 5α-DHT for the AR”. Besides, the “binding to the androgen receptor” value in assay [3] (listed as Equol racemic) is “does not bind the androgen receptor”.
`Oc1ccc([C@@H]2COc3cc(O)ccc3C2)cc1` [R-equol]: in assay [1], the “Body Wt Gain (g)” value is 45.6 (±5.5) g, the “Epididymis (g)” value is on record as 0.85 (±0.04) g and the “Prostate (g)” value was 0.31 (±0.02) g. Also, in assay [2], the “Center Area” value was 36.4 ± 7.6 s and the “Open Arm Time” value amounted to 50.0 ± 10.0 s. The “binding to the androgen receptor” value in assay [3] is listed as “does not bind the androgen receptor”.

Source of the values: patent US20070043108A1, “Use of equol for ameliorating or preventing neuropsychiatric and neurodegenerative diseases or disorders” (priority 2002, published 2007).
